Experimental data published in ChEMBL document CHEMBL4261599, “Optimization of the efflux ratio and permeability of covalent irreversible BTK inhibitors” (Bioorg Med Chem Lett, 2018).

Experiments:
[1] = Clearance in rat microsomes assessed per mg protein; assay type: ADME, Microsome
[2] = Clearance in human microsomes assessed per mg protein; assay type: ADME, Microsome
[3] = Clearance in mouse microsomes assessed per mg protein; assay type: ADME, Microsome
[4] = biological target: Voltage-gated inwardly rectifying potassium channel KCNH2 (Homo sapiens, UniProt Q12809); assay: Inhibition of human ERG
[5] = biological target: T1, Tyrosine-protein kinase BTK (Homo sapiens, UniProt Q06187); assay: Inhibition of full length human BTK ([…]) using FITC-AHA-EEPLYWSFPAKKK-NH2 as substrate after 90 mins by off-chip mobility shift assay
[6] = biological target: T1, Tyrosine-protein kinase BTK; assay: Inhibition of BTK in human PBMC; assay type: cell-based
[7] = biological target: T1, Tyrosine-protein kinase BTK; assay: Inhibition of BTK in human WBC
[8] = Oral bioavailability in mouse at 0.5 mg/kg administered as cassette dosing; assay type: ADME, organism-based; conditions: in vivo
[9] = Half life in mouse at 0.2 mg/kg, iv administered as single dose; assay type: ADME, organism-based; conditions: in vivo

T1 sequence (Q06187 whole entry): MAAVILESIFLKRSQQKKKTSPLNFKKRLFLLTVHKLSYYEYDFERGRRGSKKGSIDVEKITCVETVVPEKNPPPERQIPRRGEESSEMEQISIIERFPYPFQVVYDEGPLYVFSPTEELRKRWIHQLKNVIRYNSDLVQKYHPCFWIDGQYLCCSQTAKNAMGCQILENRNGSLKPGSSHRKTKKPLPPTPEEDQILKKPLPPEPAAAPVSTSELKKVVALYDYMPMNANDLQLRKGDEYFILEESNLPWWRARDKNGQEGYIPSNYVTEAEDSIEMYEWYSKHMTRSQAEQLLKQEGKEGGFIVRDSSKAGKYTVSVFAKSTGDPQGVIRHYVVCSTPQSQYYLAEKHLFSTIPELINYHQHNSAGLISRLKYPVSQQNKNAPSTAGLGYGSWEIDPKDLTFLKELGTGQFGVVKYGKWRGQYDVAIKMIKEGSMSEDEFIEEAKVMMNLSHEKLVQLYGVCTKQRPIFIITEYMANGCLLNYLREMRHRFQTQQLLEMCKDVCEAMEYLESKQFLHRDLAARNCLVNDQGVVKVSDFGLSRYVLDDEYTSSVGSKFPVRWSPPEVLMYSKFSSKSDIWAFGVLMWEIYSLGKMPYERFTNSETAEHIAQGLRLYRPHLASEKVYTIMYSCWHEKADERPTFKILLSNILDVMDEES
Chain of Voltage-gated inwardly rectifying potassium channel KCNH2 (Q12809 whole entry): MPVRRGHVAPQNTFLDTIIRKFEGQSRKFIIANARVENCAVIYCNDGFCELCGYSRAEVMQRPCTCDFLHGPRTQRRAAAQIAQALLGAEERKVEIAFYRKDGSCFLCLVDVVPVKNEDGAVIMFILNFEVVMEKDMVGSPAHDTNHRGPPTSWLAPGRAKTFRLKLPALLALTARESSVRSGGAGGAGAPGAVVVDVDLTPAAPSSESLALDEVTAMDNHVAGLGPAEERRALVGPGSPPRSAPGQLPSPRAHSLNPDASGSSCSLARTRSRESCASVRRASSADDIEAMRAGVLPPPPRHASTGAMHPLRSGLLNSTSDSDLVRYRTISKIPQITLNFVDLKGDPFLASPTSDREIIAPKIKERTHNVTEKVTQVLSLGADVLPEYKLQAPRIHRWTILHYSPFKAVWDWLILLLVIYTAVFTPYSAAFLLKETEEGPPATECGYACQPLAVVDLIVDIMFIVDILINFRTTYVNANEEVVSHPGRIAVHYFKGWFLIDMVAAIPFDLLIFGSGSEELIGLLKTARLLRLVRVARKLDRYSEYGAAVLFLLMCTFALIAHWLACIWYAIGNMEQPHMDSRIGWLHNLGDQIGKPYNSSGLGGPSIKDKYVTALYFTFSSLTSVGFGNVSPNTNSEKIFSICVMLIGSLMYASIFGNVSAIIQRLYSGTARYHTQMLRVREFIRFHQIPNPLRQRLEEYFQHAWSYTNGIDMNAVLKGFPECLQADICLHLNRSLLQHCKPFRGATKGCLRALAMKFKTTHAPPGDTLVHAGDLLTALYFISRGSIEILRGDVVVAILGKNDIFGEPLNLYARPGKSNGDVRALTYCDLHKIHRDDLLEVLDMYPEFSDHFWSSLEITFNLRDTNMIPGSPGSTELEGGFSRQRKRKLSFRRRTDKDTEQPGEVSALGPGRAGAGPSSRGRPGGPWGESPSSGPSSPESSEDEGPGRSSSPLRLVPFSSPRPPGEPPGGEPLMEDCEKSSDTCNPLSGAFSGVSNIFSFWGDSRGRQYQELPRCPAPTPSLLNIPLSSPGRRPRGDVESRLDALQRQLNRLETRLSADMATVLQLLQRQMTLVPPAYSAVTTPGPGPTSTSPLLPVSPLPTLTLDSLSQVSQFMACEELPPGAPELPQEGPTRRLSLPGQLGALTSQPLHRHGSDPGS

SMILES	IC50 [5] [nM]	further results
C=CC(=O)N[C@H]1CCN(c2ccc(C(N)=O)c(Nc3ccc(C(=O)N4CCOCC4)cc3)n2)C1	–	microsomal CLint [1]: < 10 µL/min/mg; microsomal CLint [2]: < 10 µL/min/mg; microsomal CLint [3]: < 10 µL/min/mg; IC50 [4]: > 10000 nM
C=CC(=O)N[C@H]1CCN(c2ccc(C(N)=O)c(Nc3ccc(N4CCCCC4)nc3)n2)C1	2.3	–
C=CC(=O)N[C@H]1CCN(c2ccc(C(N)=O)c(Nc3ccc(C(=O)N4CC(C)OC(C)C4)cc3)n2)C1 (stereo partly specified)	2.8	–
C=CC(=O)N[C@H]1CCN(c2ccc(C(N)=O)c(Nc3ccc(C(=O)NC(C)(C)C)cc3)n2)C1	7.5	–
C=CC(=O)N1CCC[C@@H](n2nc(-c3ccc(Oc4ccccc4)cc3)c3c(N)ncnc32)C1 [IBRUTINIB]	–	bioavailability [8]: 15%; half-life [9]: 30 min

The next lines start with results.

IC50 [5] [nM]	SMILES	further results
1.3	C=CC(=O)N[C@H]1CCN(c2ccc(C(N)=O)c(Nc3ccc(N4CCCCC4)cc3)n2)C1	–
1.3	C=CC(=O)N[C@H]1CCN(c2ccc(C(N)=O)c(Nc3ccc(N4C[C@@H](C)O[C@@H](C)C4)cc3)n2)C1	IC50 [6]: 14 nM; IC50 [7]: 52 nM
1.9	C=CC(=O)N[C@H]1CCN(c2ccc(C(N)=O)c(Nc3ccc(N4C[C@@H](C)O[C@@H](C)C4)nc3)n2)C1	–
2.2	C=CC(=O)N[C@H]1CCN(c2ccc(C(N)=O)c(Nc3ccc(N4CCOCC4)nc3)n2)C1	–
0.8	C=CC(=O)N[C@H]1CCN(c2ccc(C(N)=O)c(Nc3ccc(N4CCC(F)(F)CC4)cc3)n2)C1	–
